Measurements: US20030129678A1, “Methods, pharmaceutical formulations and kits for identification of subjects at risk for cancer” (priority 1999, published 2003)
Blank lines part the entries; values can stand above or below the molecule they belong to.

Tests used:
[1] = target: T1, A1 adenosine receptors (Mus musculus, UniProt Q60612); test: Competition experiments  against 125I-BWA844U in macrophage membranes; assay type: binding
T1 sequence (Q60612 1-326): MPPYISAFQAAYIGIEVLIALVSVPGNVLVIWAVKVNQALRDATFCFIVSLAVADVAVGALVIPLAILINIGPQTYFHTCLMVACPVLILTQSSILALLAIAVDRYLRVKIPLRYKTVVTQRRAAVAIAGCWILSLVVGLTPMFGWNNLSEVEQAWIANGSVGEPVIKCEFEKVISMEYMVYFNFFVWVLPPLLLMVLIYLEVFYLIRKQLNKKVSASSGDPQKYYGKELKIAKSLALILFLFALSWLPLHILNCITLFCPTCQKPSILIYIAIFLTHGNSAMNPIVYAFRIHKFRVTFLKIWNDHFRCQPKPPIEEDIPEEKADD
Method: Non-specific binding is determined in presence of 1 mM theophylline. Membrane bound radioactivity is separated by filtration over a cell harvester. The data is analyzed by non-linear regression analysis using GraphPad prism software and the Ki value is calculated.

[2] = system: Nb2 lymphoma; conditions: cited from earlier work
[3] = system: K-562 leukemia; conditions: cited from earlier work
[4] = system: LNCaP prostate carcinoma cells; conditions: cited from earlier work
[5] = system: normal murine bone marrow cells; conditions: cited from earlier work
[6] = target: T2, A1 adenosine receptor expression (Homo sapiens, UniProt P30542); test: Saturation binding in human macrophages (SC) after cisplatin treatment; assay type: cell-based; conditions: human macrophages (SC, ATCC); cisplatin 2.5 μM for 24 hours
T2 construct: This same protocol is repeated using membranes from human macrophages (SC cells)
T2 sequence (P30542 1-326): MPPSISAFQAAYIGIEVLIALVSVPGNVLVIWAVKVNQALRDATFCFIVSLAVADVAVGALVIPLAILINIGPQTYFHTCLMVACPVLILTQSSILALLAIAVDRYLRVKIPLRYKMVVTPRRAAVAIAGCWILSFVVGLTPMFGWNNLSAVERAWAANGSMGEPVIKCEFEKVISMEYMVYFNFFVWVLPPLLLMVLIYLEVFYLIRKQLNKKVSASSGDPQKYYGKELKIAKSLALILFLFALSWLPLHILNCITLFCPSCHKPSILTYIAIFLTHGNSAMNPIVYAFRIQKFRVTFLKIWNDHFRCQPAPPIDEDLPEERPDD
Method: Incubation of the macrophage fractions with the A1 adenosine receptor ligand ^125I-BWA844U (see Patel et al., J. Pharmacol. Exp. Ther. 33:585 (1988) in concentrations ranging from 1.25-20 nM was carried out at 37° C. for 1 hour. Non-specific binding is determined in the presence of 1 mM theophylline. Following incubation, membrane bound radioactivity is separated by filtration over a cell harvester and counted in a gamma counter. The data is analyzed by non-linear regression using GraphPad Prism software. Thc Bmax and kd values are calculated from the analyzed data.
This same protocol is repeated using membranes from human macrophages (SC cells).

[7] = system: TNF-α; test: Functional experiments: TNF-α release from macrophages (ELISA); assay type: cell-based, mouse
Method: Macrophages are then challenged with 1 μM PMA in the above medium for 2 hours and then stimulated with different concentrations of (0-1 μM) of 2-chloro-N^6-cyclopentyl adenosine (CCPA) at 37° C. for 1-6 hours. The supernatant is collected and the TNF-α levels are estimated by commercially available ELISA kits (R & D Systems, Minneapolis, Minn.).

[8] = system: mouse P815 mastocytoma tumor cells; test: In vitro cytotoxicity (51Cr release), primed and activated mouse macrophages against P815 cells; conditions: mouse macrophages (IC-21); priming with PMA (1 μM), activation with CCPA (1 μM)
Method: (§1) B-16 melanoma cells are washed with serum free RPMI medium by centrifugation. 25-30 μCi of Na ^51Cr is diluted to 1 ml of RPMI and transferred to the melanoma cells suspension. The melanoma cells are incubated with Na ^51Cr at 37° C. for 1 hour. The unincorporated radioactivity is removed by centrifugation at 1000×g for 10 minutes. The melanoma cells are allowed to leak for 2 hours and then washed again. The final suspension is diluted in RPMI. The cell number is counted in a hemocytometer.
(§2) Macrophages are washed with medium containing 100 mM MgCl2, 2 U/ml adenosine deaminase and 10% fetal bovine serum. Macrophages are then challenged with 1 μM PMA in the above medium for 2 hours and then stimulated with different concentrations of (0-1 μM) of 2-chloro-N^6-cyclopentyl adenosine (CCPA) for 30 minutes. The macrophages are then incubated with ^51Cr-labelled B-16 melanoma cells at a ratio of 20:1. Six hours later, a fraction of the supernatant is aspirated and counted in a gamma counter.
(§3) Total releasable counts are measured by lysing the melanoma cells in hypotonic medium.
(§4) The results are expressed as percentage (%) ^51Cr release as follows: [formula]
This same protocol is repeated, except that P815 mouse mastocytoma tumor cells are used instead of the B-16 melanoma cells.

[9] = system: A375 human melanoma tumor cells; test: In vitro cytotoxicity (51Cr release), primed and activated human macrophages against A375 cells; conditions: human macrophages (SC hematopoietic cell line and a healthy volunteer); priming with PMA (1 μm), activation with CCPA (1 μm)
Method: as §1, §2, §3, §4

[10] = system: mouse B-16 melanoma cells; test: In vitro cytotoxicity (51Cr release), primed and activated mouse macrophages against B-16 melanoma cells; conditions: priming with PMA (1 μm), activation with CCPA (lam)
Method: as §1, §2, §3, §4
Percentage ^51 Cr release is a measure of the lysing of cells (i.e., killing of cells), and is therefore an indicia of cytotoxicity.

affinity (Ki) in membranes from WBC264-9C macrophages compared with IC-21 macrophages ([1]; competition with 0.1-0.2 nM 125I-BWA844U): lower
Molecule: MCP-1: human recombinant monocyte chemotactic protein, chemoattractive for monocytes

Molecule: Nc1ncnc2c1ncn2[C@@H]1O[C@H](CO)[C@@H](O)[C@H]1O [adenosine]
tumor cell growth [2]: inhibits tumor cell growth
tumor cell growth [3]: inhibits tumor cell growth
tumor cell growth [4]: inhibits tumor cell growth
proliferation [5]: stimulating proliferation

Molecule: N.N.[Cl][Pt][Cl] [cisplatin]
increase of A1 adenosine receptor expression (Bmax) [6]: approximately three-fold
effect of pretreatment on affinity of WBC264-9C macrophage membranes for MCP-1 ([1]; cisplatin 2.5 μM for 24 hours): increases the affinity
effect of pretreatment on TNF-α release from WBC264-9C macrophages ([7]; cisplatin 2.5 μM for 24 hours, then PMA and CCPA): increases TNF-α release

Molecule: OC[C@H]1O[C@@H](n2cnc3c(NC4CCCC4)nc(Cl)nc32)[C@H](O)[C@@H]1O [CCPA, 2-chloro-N^6-cyclopentyladenosine]
TNF-α release in WBC264-9C macrophages compared with IC-21 macrophages ([7]; priming with PMA 1 μM, activation with CCPA 0-1 μM, 1-6 hours): lower
cytotoxicity for mouse P815 mastocytoma tumor cells [8]: cytotoxic
cytotoxicity to A375 human melanoma tumor cells [9]: cytotoxic
cytotoxicity of mouse B-16 melanoma cells ([10]; macrophages from LPS-resistant mice (WBC264-9C, ATCC)): 20%
cytotoxicity of mouse B-16 melanoma cells ([10]; macrophages from LPS-sensitive mice (IC-21, ATCC)): 50%
